# Assay results reported in ChEMBL document CHEMBL1132505, “Allosteric modulators of the AMPA receptor: novel 6-substituted dihydrophthalazines” (1999).
# Columns and labels:
# [1] = molecular target: Glutamate receptor ionotropic, AMPA (Rattus norvegicus) (UniProt P19491+P19492+P19493+P19490); assay: Inhibition of KA induced currents associated with activation of the AMPA subtype of glutamate receptors in cerebellar neurons at a concentration of 10 uM; type: protein-complex assay
# [2] = test system: Rattus norvegicus; assay: In vivo anticonvulsant activity in rats using maximal electroshock (MES) assay; value ranges from 35-50 mg/kg; type: functional
# [3] = test system: Mus musculus; assay: In vivo anticonvulsant activity in mice using maximal electroshock (MES) assay; value ranges from 35-50 mg/kg; type: functional
# [4] = test system: Mus musculus; assay: In vivo anticonvulsant activity in mice using maximal electroshock (MES) assay; type: functional
# [5] = organism: Mus musculus; assay: Reduced sedation using rotarod test in mouse; type: functional
SMILES,inhibition [1] [%],ED50 [2] [mg/kg],ED50 [3] [mg/kg],ED50 [4] [mg/kg],ED50 [5] [mg/kg]
CCCCNC(=O)N1N=C(c2ccc(N)cc2)c2cc(OC)ccc2C1C (stereo unspecified),50,–,–,–,–
CCCNC(=O)N1N=C(c2ccc(N)cc2)c2cc3c(cc2C1C)OCO3 (stereo unspecified),58,35,35,–,–
CCCNC(=O)N1N=C(c2ccc(N)cc2)c2cc(OC)ccc2C1C (stereo unspecified),52,–,–,52,150

# Second part, led by results:
inhibition [1] [%],SMILES,ED50 [2] [mg/kg],ED50 [3] [mg/kg],ED50 [4] [mg/kg],ED50 [5] [mg/kg]
55,CCCNC(=O)N1N=C(c2ccc(N)cc2)c2cc(F)ccc2C1C (stereo unspecified),–,–,–,–
62,CCCCNC(=O)N1N=C(c2ccc(N)cc2)c2cc3c(cc2C1C)OCO3 (stereo unspecified),35,35,–,–
